Results published in ChEMBL document CHEMBL1132141, “Emerging therapies for the prevention or treatment of postmenopausal osteoporosis” (1999).

Organism: Rattus norvegicus
Assay: Effective concentration against cholesterol-lowering agent in OVX rats
Type: functional

C[C@H]1CCC[C@H](O)CCCCCc2cc(O)cc(O)c2C(=O)O1 [ZERANOL]
ED50: 0.2 mg/kg
